Counter-ions that a name gives are not always drawn.

The text below walks through data of patent publication US20260209175A1, “PHARMACEUTICALLY ACCEPTABLE 5-METHOXY-N,N-DIMETHYL[…] AND COMPOSITIONS THEREOF” (priority 2022, published 2026).

Common to all, as to assay type: physicochemical
Data set [1] is described as follows: Polymorphism screen of hydrochloride salt (thermal cycling, evaporations), XRPD. Particulars: lyophilised hydrochloride salt, thermally cycled between ambient and 40° C., three days. How it is done:
To render the material amorphous and thus remove seeds of the pattern 1 the material was rendered amorphous. To 2.605 g of the hydrochloride lot RPI-014-022 dioxane (55 ml) and water (5 ml) was added. The mixture was agitated gently and warmed to aid dissolution.
Twenty five of the lyophilised samples were treated with solvent and thermally cycled between ambient and 40° C. with four hours spent under each condition. After three days and solids were isolated by centrifuge filtration and analysed by XRPD.
Twelve samples of the lyophilised material were treated with a minimal volume (ca 0.5 ml) of warm solvent, syringe filtered through a 0.22 µm filter and added to a clean HPLC vial and allowed to evaporate at RT. The solvents used and XRPD results following evaporation are detailed in the Table below: […]

Data set [2] in a line: Thermo-Gravimetric Analysis (TGA), thermal stability. Particulars: 10° C./min ramp; for thermally stable up to (TGA): nitrogen.
Experimental: TGA thermograms were obtained with a TA Instrument Discovery 550 in Al pans. The heating rate used was 10° C./min linear ramp from 25 to 400° C. with a nitrogen purging at a rate of 60 ml/min. TGA thermograms were analysed using TRIOS software.
A short description of data set [3]: Dynamic Vapor Sorption (DVS) analysis of salts, with XRPD of the post-DVS sample. Here is the method:
XRPD diffractograms were acquired using Bruker D2 Phaser diffractometer equipped with LYNXEYE detector. Samples were prepared using a zero-background sample holder. The samples were scanned from 5 to 32° (2θ) using a step size of 0.02° and a time per step of 0.13 second whilst spinning the sample. Diffractograms were plotted using the EVA program from Bruker.
DVS analyses were performed on TA Instrument DVS Q5000. Samples were added to a pre-tared metallised quartz crucible and run at 25° C. from 40% RH to 90% RH, down to zero and back to 40%. This cycle was repeated in increments of 10% RH.

On to `COc1ccc2[nH]cc(CCN(C)C)c2c1.Cl` [DJP2202-007-02], for which the “XRPD Result” value in data set [1] (1-Propanol) was “Pattern 1”. Take `COc1ccc2[nH]cc(CCN(C)C)c2c1.Cl` [DJP2202-007-03]: the “XRPD Result” value in data set [1] (2-Butanol) is reported as “Pattern 1”.

Regarding `COc1ccc2[nH]cc(CCN(C)C)c2c1.Cl` [DJP2202-007-05], in data set [1] (2-Methyltetrahydrofuran), the “XRPD Result” value is “Pattern 1”. Turning to `COc1ccc2[nH]cc(CCN(C)C)c2c1.Cl` [DJP2202-007-06], the “XRPD Result” value in data set [1] (2-Propanol) was “Pattern 1”. For the molecule `COc1ccc2[nH]cc(CCN(C)C)c2c1.Cl` [DJP2202-007-07], in data set [1] (Acetone), the “XRPD Result” value is listed as “Pattern 1”. With `COc1ccc2[nH]cc(CCN(C)C)c2c1.Cl` [DJP2202-007-08], the “XRPD Result” value in data set [1] (Acetonitrile) is reported as “Pattern 1”. Consider `COc1ccc2[nH]cc(CCN(C)C)c2c1.Cl` [DJP2202-007-09], for which the “XRPD Result” value in data set [1] (Anisole) was “Pattern 1”. For the molecule `COc1ccc2[nH]cc(CCN(C)C)c2c1.Cl` [DJP2202-007-10], the “XRPD Result” value in data set [1] (Chlorobenzene) is “Pattern 1”. With `COc1ccc2[nH]cc(CCN(C)C)c2c1.Cl` [DJP2202-007-11], in data set [1] (Ethanol), the “XRPD Result” value is listed as “Pattern 1”. Regarding `COc1ccc2[nH]cc(CCN(C)C)c2c1.Cl` [DJP2202-007-12], in data set [1] (Ethyl acetate), the “XRPD Result” value is reported as “Pattern 1”. For `COc1ccc2[nH]cc(CCN(C)C)c2c1.Cl` [DJP2202-007-13], the “XRPD Result” value in data set [1] (Isopropyl acetate (experiment 007-13)) is “Pattern 1”.

On to `COc1ccc2[nH]cc(CCN(C)C)c2c1.Cl` [DJP2202-007-15], for which, in data set [1] (Propyl acetate), the “XRPD Result” value is reported as “Pattern 1”. For `COc1ccc2[nH]cc(CCN(C)C)c2c1.Cl` [DJP2202-007-16], the “XRPD Result” value in data set [1] (Methylethyl ketone) is listed as “Pattern 2”.

As for `COc1ccc2[nH]cc(CCN(C)C)c2c1.Cl` [DJP2202-007-20], the “XRPD Result” value in data set [1] (iso-Propyl acetate (experiment 007-20)) is listed as “Pattern 1”.

As to `COc1ccc2[nH]cc(CCN(C)C)c2c1.Cl` [DJP2202-007-21], the “XRPD Result” value in data set [1] (2-Me-1-PrOH) is listed as “Pattern 1”. `COc1ccc2[nH]cc(CCN(C)C)c2c1.Cl` [DJP2202-007-22]: the “XRPD Result” value in data set [1] (Tetrahydrofuran) is recorded as “Pattern 1”. Turning to `COc1ccc2[nH]cc(CCN(C)C)c2c1.Cl` [Hydrochloride pattern 2, 5-MeO-DMT hydrochloride], the “onset of decomposition / mass loss (TGA)” value in data set [2] (hydrochloride) is “around 256 °C”.

On to `COc1ccc2[nH]cc(CCN(C)C)c2c1.Cl` [Hydrochloride pattern 3, 5-MeO-DMT hydrochloride], for which, in data set [2] (hydrochloride), the “onset of decomposition / mass loss (TGA)” value was “around 260 °C”. For the molecule `COc1ccc2[nH]cc(CCN(C)C)c2c1` [Ketoglutarate salt, 5-MeO-DMT ketoglutarate], the “water uptake at 40% RH” value in data set [3] (first sorption isotherm, 40% RH) came to 0.13 % w/w. Also, the “moisture absorption at 80% RH” value in data set [3] (first sorption isotherm, 80% RH) is reported as 2.55 % w/w. Further, in data set [3] (first sorption isotherm, 90% RH), the “water uptake at 90% RH” value is recorded as 28.14 % w/w. The “deliquescence during DVS” value in data set [3] (high RH) is “deliquesce at high RH”. As to `COc1ccc2[nH]cc(CCN(C)C)c2c1` [Saccharinate salt, 5-MeO-DMT saccharinate], the “thermally stable up to (TGA)” value in data set [2] came to 200 °C. For the molecule `COc1ccc2[nH]cc(CCN(C)C)c2c1.O=C(O)c1ccccc1` [benzoate salt pattern 2, 5-MeO-DMT benzoate], the “thermally stable up to (TGA)” value in data set [2] was ~ 170 °C. `COc1ccc2[nH]cc(CCN(C)C)c2c1.O=C(O)c1ccccc1` [benzoate salt pattern 3, 5-MeO-DMT benzoate]: in data set [2], the “onset of decomposition / mass loss (TGA)” value was “approximately 190 °C”. Regarding `COc1ccc2[nH]cc(CCN(C)C)c2c1.O=C(O)c1ccccc1` [benzoate salt pattern 4, 5-MeO-DMT benzoate], in data set [2], the “onset of decomposition / mass loss (TGA)” value is ~ 190 °C and the “thermally stable up to (TGA)” value was ~ 190 °C. Turning to `COc1ccc2[nH]cc(CCN(C)C)c2c1` [free base, 5-methoxy-N,N-dimethyltryptamine], the “thermally stable up to (TGA)” value in data set [2] is 150 °C.
